Experimental data: US20260365653A1, “IRREVERSIBLE MUTEGFR INHIBITORS” (Bayer Aktiengesellschaft, priority 2022, published 2026)

How the values were obtained:
BA/F3 (insSVD) cells = assay: Ba/F3-EGFR-insSVD cell survival assay (Cell Titer-Glo); type: cell-based; details: Mus musculus, BaF3, 48 h, Table 3a, cell survival, Cell Titer-Glo, with 10 ng/ml EGF, without IL-3
Method in brief: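 CellTiter-Glo luminescence read after 48 h compound exposure at 37° C. Cells: IL-3-independent Ba/F3 lines transduced with EGFR-insSVD or EGFR-insSVD T790M, maintained on 10 ng/ml EGF and seeded at 4000 per well.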

[1] = biological target: T1, mutEGFR (D770_N771insSVD) (Homo sapiens, UniProt P00533, DUP768-770); assay: Exon20-Mutant-EGFR (D770_N771insSVD) kinase assay (TR-FRET); type: biochemical; details: mutEGFR (D770_N771insSVD) kinase assay IC50, Table 2a; D770_N771insSVD; 2 mM ATP
T1 construct: GST-EGFR #3 (SVD between D770 and N771); made in house; host or cells: Sf9 insect cells (baculovirus)

[2] = biological target: T2, mutEGFR (D770_N771insNPG, T790) (Homo sapiens, UniProt P00533, INS770NPG/T790M); assay: mutEGFR (D770_N771insNPG, T790) kinase assay; type: biochemical; details: Table 2a, D770_N771insNPG
T2 construct: exact insNPG construct not described; in-house EGFR proteins were N-terminal GST fusions from baculovirus/insect cells (borders R669-A1210 given only for WT, insSVD, insASV)
Text: The different EGFR proteins used in the biochemical kinase activity inhibition assays were generated inhouse by expression in insect cells using Baculo Virus system and subsequent purification as described in the following paragraphs.
The cDNAs encoding the various protein sequences from human EGFR human (P00533) were optimized for expression in eukaryotic cells and synthesized by the GeneArt Technology at Life Technologies.

T1 sequence (P00533 with tags, fused parts or gaps DUP768-770): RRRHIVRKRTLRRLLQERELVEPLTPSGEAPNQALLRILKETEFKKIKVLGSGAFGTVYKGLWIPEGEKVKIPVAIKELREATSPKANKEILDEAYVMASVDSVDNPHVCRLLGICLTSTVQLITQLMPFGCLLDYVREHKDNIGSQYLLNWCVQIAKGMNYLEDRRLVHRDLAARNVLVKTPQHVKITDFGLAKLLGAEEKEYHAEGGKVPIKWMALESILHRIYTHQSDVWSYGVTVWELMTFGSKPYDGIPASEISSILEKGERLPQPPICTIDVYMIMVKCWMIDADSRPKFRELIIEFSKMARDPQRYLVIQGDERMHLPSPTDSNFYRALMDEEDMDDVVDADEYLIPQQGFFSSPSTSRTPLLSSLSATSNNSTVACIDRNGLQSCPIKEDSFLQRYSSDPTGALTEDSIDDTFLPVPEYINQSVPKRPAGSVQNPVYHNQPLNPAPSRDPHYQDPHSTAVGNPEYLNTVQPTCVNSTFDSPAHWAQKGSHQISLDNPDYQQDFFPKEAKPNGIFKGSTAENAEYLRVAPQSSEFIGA
T2 sequence (P00533 with tags, fused parts or gaps INS770NPG/T790M limits assumed): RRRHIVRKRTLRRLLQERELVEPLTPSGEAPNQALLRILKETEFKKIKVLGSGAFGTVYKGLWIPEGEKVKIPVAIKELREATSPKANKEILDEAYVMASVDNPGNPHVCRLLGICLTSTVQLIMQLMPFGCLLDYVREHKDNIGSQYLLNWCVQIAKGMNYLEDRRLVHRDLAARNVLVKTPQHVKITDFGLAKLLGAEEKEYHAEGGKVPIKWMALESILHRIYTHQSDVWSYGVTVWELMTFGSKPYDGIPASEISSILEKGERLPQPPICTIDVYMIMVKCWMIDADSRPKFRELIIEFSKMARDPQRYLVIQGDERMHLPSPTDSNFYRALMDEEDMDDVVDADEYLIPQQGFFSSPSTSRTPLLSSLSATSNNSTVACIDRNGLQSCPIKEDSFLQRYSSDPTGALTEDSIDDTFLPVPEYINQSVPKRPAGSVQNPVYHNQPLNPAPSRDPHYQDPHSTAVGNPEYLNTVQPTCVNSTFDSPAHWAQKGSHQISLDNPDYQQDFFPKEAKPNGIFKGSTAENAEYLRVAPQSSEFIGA

Compound | IC50 [1] | IC50 [2] | IC50 (BA/F3 (insSVD) cells)
CC(C)(C)OC(=O)NC1(C#CC(=O)N2CCn3nc(-c4ccc(F)cc4)c(-c4ccncc4)c3C2)CC1 [Example 86, tert-butyl (1-{3-[2-(4-fluorophenyl)-3-(pyridin-4-yl)-6,7-dihydropyrazolo[1,5-a]pyrazin-5(4H)-yl]-3-oxoprop-1-yn-1-yl}cyclopropyl) carbamate] | 122 nM | 237 nM | 971 nM
NC1(C#CC(=O)N2CCn3nc(-c4ccc(F)cc4)c(-c4ccncc4)c3C2)CC1 [Example 89, 3-(1-aminocyclopropyl)-1-[2-(4-fluorophenyl)-3-(pyridin-4-yl)-6,7-dihydropyrazolo[1,5-a]pyrazin-5(4H)-yl]prop-2-yn-1-one] | 6.06 nM | 8.7 nM | 5060 nM
CC(C)(C)OC(=O)NCC#CC(=O)N1CCn2nc(-c3ccc(F)cc3)c(-c3ccncc3)c2C1 [Example 90, tert-butyl {4-[2-(4-fluorophenyl)-3-(pyridin-4-yl)-6,7-dihydropyrazolo[1,5-a]pyrazin-5(4H)-yl]-4-oxobut-2-yn-1-yl}carbamate] | 2.08 nM | 5.34 nM | 166 nM
NCC#CC(=O)N1CCn2nc(-c3ccc(F)cc3)c(-c3ccncc3)c2C1 [Example 91, 4-amino-1-[2-(4-fluorophenyl)-3-(pyridin-4-yl)-6,7-dihydropyrazolo[1,5-a]pyrazin-5(4H)-yl]but-2-yn-1-one] | 26.3 nM | 52.8 nM | 1410 nM
C=CC(=O)N1CCn2nc(Nc3ccc(Cl)cc3F)c(-c3ccnc4[nH]cc(C)c34)c2C1 [Example 92, 1-[2-(4-chloro-2-fluoroanilino)-3-(3-methyl-1H-pyrrolo[2,3-b]pyridin-4-yl)-6,7-dihydropyrazolo[1,5-a]pyrazin-5(4H)-yl]prop-2-en-1-one] | 24.6 nM | 53.6 nM | 125 nM
C=CC(=O)N1CCn2nc(Nc3ccc(C(F)(F)F)cc3)c(-c3ccnc4[nH]cc(C)c34)c2C1 [Example 94, 1-[3-(3-methyl-1H-pyrrolo[2,3-b]pyridin-4-yl)-2-[4-(trifluoromethyl)anilino]-6,7-dihydropyrazolo[1,5-a]pyrazin-5(4H)-yl]prop-2-en-1-one] | 213 nM | 403 nM | 2760 nM
C=CC(=O)N1CCn2nc(Nc3ccc(Cl)cc3F)c(-c3ccncc3)c2C1 [Example 95, 1-[2-(4-chloro-2-fluoroanilino)-3-(pyridin-4-yl)-6,7-dihydropyrazolo[1,5-a]pyrazin-5(4H)-yl]prop-2-en-1-one] | 40.6 nM | 99.5 nM | 1210 nM
C=CC(=O)N1CCn2nc(Nc3ccc(OC)c(F)c3)c(-c3ccncc3)c2C1 [Example 96, 1-[2-(3-fluoro-4-methoxyanilino)-3-(pyridin-4-yl)-6,7-dihydropyrazolo[1,5-a]pyrazin-5(4H)-yl]prop-2-en-1-one] | 2030 nM | 7960 nM | 7930 nM
C=CC(=O)N1CCn2nc(Nc3ccc(C(F)(F)F)cc3)c(-c3ccncc3)c2C1 [Example 97, 1-[3-(pyridin-4-yl)-2-[4-(trifluoromethyl)anilino]-6,7-dihydropyrazolo[1,5-a]pyrazin-5(4H)-yl]prop-2-en-1-one] | 626 nM | 3800 nM | 4360 nM
CN(C)C/C=C/C(=O)N1CCn2nc(-c3ccc(F)cc3)c(-c3ccnc4[nH]ccc34)c2C1 [Example 98, (2E)-4-(dimethylamino)-1-[2-(4-fluorophenyl)-3-(1H-pyrrolo[2,3-b]pyridin-4-yl)-6,7-dihydropyrazolo[1,5-a]pyrazin-5(4H)-yl]but-2-en-1-one] | 10.4 nM | 11.6 nM | 209 nM
Cc1ccc(-c2nn3c(c2-c2ccnc4[nH]ccc24)CN(C(=O)/C=C/CN(C)C)CC3)c(F)c1 [Example 99, (2E)-4-(dimethylamino)-1-[2-(2-fluoro-4-methylphenyl)-3-(1H-pyrrolo[2,3-b]pyridin-4-yl)-6,7-dihydropyrazolo[1,5-a]pyrazin-5(4H)-yl]but-2-en-1-one] | 5.72 nM | 57.1 nM | 337 nM
C[C@@H]1Cn2nc(-c3cccc(C#N)c3)c(-c3ccncc3)c2CN1C(=O)/C=C/CN(C)C [Example 100, 3-[(6R)-5-[(2E)-4-(dimethylamino)but-2-enoyl]-6-methyl-3-(pyridin-4-yl)-4,5,6,7-tetrahydropyrazolo[1,5-a]pyrazin-2-yl]benzonitrile] | 19.6 nM | 3.57 nM | 420 nM
C[C@H]1Cn2nc(-c3cccc(C#N)c3)c(-c3ccncc3)c2CN1C(=O)/C=C/CN(C)C [Example 101, 3-[(6S)-5-[(2E)-4-(dimethylamino)but-2-enoyl]-6-methyl-3-(pyridin-4-yl)-4,5,6,7-tetrahydropyrazolo[1,5-a]pyrazin-2-yl]benzonitrile] | 16.8 nM | 3.5 nM | 44.6 nM
C=CC(=O)N1CCn2nc(-c3ccc(C)cc3F)c(-c3ccnc4[nH]ccc34)c2C1 [Example 102, 1-[2-(2-fluoro-4-methylphenyl)-3-(1H-pyrrolo[2,3-b]pyridin-4-yl)-6,7-dihydropyrazolo[1,5-a]pyrazin-5(4H)-yl]prop-2-en-1-one] | 4.77 nM | 22.8 nM | 49.8 nM
CN(C)C/C=C/C(=O)N1CCn2nc(-c3ccc(Cl)cc3F)c(-c3ccnc4[nH]ccc34)c2C1 [Example 103, (2E)-1-[2-(4-chloro-2-fluorophenyl)-3-(1H-pyrrolo[2,3-b]pyridin-4-yl)-6,7-dihydropyrazolo[1,5-a]pyrazin-5(4H)-yl]-4-(dimethylamino)but-2-en-1-one] | 3.7 nM | 25.2 nM | 122 nM
C=CC(=O)N1CCn2nc(-c3ccc(Cl)cc3F)c(-c3ccnc4[nH]ccc34)c2C1 [Example 104, 1-[2-(4-chloro-2-fluorophenyl)-3-(1H-pyrrolo[2,3-b]pyridin-4-yl)-6,7-dihydropyrazolo[1,5-a]pyrazin-5(4H)-yl]prop-2-en-1-one] | 1.66 nM | 9.09 nM | 32 nM
C=CC(=O)N1CCn2nc(-c3ccc(F)c4ccoc34)c(-c3ccncc3)c2C1 [Example 105, 1-[2-(4-fluoro-1-benzofuran-7-yl)-3-(pyridin-4-yl)-6,7-dihydropyrazolo[1,5-a]pyrazin-5(4H)-yl]prop-2-en-1-one] | 1.48 nM | 1.57 nM | 233 nM
C=CC(=O)N1CCn2nc(-c3ccc(C)cc3O)c(-c3ccncc3)c2C1 [Example 113, 1-[2-(2-hydroxy-4-methylphenyl)-3-(pyridin-4-yl)-6,7-dihydropyrazolo[1,5-a]pyrazin-5(4H)-yl]prop-2-en-1-one] | 1.76 nM | 3.91 nM | 55.5 nM

Compounds with a lower IC50 [1], results first:

IC50 [1] | IC50 [2] | Compound | IC50 (BA/F3 (insSVD) cells)
0.844 nM | 0.564 nM | C=CC(=O)N1CCn2nc(-c3cccc4ccoc34)c(-c3ccncc3)c2C1 [Example 107] | 41.4 nM
0.75 nM | 1.93 nM | C=CC(=O)N1CCn2nc(-c3ccc(C)cc3F)c(-c3ccncc3)c2C1 [Example 110, 1-[2-(2-fluoro-4-methylphenyl)-3-(pyridin-4-yl)-6,7-dihydropyrazolo[1,5-a]pyrazin-5(4H)-yl]prop-2-en-1-one] | 33.2 nM
0.731 nM | 2.43 nM | O=C(C#CCN1CCOCC1)N1CCn2nc(-c3ccc(Cl)cc3F)c(-c3ccncc3)c2C1 [Example 85, 1-[2-(4-chloro-2-fluorophenyl)-3-(pyridin-4-yl)-6,7-dihydropyrazolo[1,5-a]pyrazin-5(4H)-yl]-4-(morpholin-4-yl) but-2-yn-1-one] | 34.6 nM
0.528 nM | 0.546 nM | C=CC(=O)N1CCn2nc(-c3ccc(F)c4ccccc34)c(-c3ccncc3)c2C1 [Example 106, 1-[2-(4-fluoronaphthalen-1-yl)-3-(pyridin-4-yl)-6,7-dihydropyrazolo[1,5-a]pyrazin-5(4H)-yl]prop-2-en-1-one] | 214 nM
0.351 nM | 0.425 nM | C=CC(=O)N1CCn2nc(-c3ccc4c(C)c[nH]c4c3)c(-c3ccncc3)c2C1 [Example 108, 1-[2-(3-methyl-1H-indol-6-yl)-3-(pyridin-4-yl)-6,7-dihydropyrazolo[1,5-a]pyrazin-5(4H)-yl]prop-2-en-1-one] | 33.3 nM
0.196 nM | 0.448 nM | C=CC(=O)N1CCn2nc(-c3cc4ccoc4cc3F)c(-c3ccncc3)c2C1 [Example 112, 1-[2-(6-fluoro-1-benzofuran-5-yl)-3-(pyridin-4-yl)-6,7-dihydropyrazolo[1,5-a]pyrazin-5(4H)-yl]prop-2-en-1-one] | 20.3 nM
0.13 nM | 0.259 nM | C=CC(=O)N1CCn2nc(-c3ccc4ccccc4c3F)c(-c3ccncc3)c2C1 [Example 111, 1-[2-(1-fluoronaphthalen-2-yl)-3-(pyridin-4-yl)-6,7-dihydropyrazolo[1,5-a]pyrazin-5(4H)-yl]prop-2-en-1-one] | 27.5 nM
0.111 nM | 0.149 nM | C=CC(=O)N1CCn2nc(-c3cc4ccccc4cc3F)c(-c3ccncc3)c2C1 [Example 109, 1-[2-(3-fluoronaphthalen-2-yl)-3-(pyridin-4-yl)-6,7-dihydropyrazolo[1,5-a]pyrazin-5(4H)-yl]prop-2-en-1-one] | 42 nM
